Results on 15 compounds are retold here after US20260297060A1, “COMPOUNDS FOR THE DEGRADATION OF MUTANT BRAF” (C4 THERAPEUTICS, INC., priority 2023, published 2026).

The target in test [1] is T1, human bile salt export pump (BSEP) efflux transporter (Homo sapiens, UniProt O95342).
T1 construct: purchased SOLVO Biotechnology Charles River Laboratories, Szeged, Hungary; host or cells: HEK293 (inside out membrane vesicles)
Briefly: BSEP Vesicular Transport Inhibition Assay (IC50 determination). It is filed as biochemical. The following applies: human BSEP (HEK293) vesicles, taurocholate 0.2 μM, 4 mM Mg-ATP, 10 concentrations, 1 replicate. How it is done:
The vesicular transport (VT) assays were performed using inside out membrane vesicles derived from HEK293 cells expressing the specified human bile salt export pump (BSEP) efflux transporter. The membrane vesicles were procured from SOLVO Biotechnology Charles River Laboratories, Szeged, Hungary.
The principle of the assay relies on measuring the accumulation of substrate into inside out vesicles containing the efflux transporter. By utilizing inside out vesicles, the ATP-dependent transport of substrate is directed into the vesicular lumen, where low permeability compounds are then essentially trapped.
For the IC50 screen inhibition assay, 10 concentrations of each compound were tested in the presence of ATP (active transport) in 1 replicate.
The solvent control (DMSO) was tested in the presence of ATP (active transport) and in the presence of AMP (background) in 8 replicates.
Vesicular transport inhibition assays were performed using the specific parameters for each transporter inhibition assay described in Table 53.
Table 54 specifies treatment groups and concentration of compounds, that were examined in the vesicular transport inhibition assay. Detailed data of IC50 screen inhibition assay are shown in Table 55 and detailed data of 1 concentration inhibition assay are shown in Table 56.
The vesicular transport inhibition assay was performed with 4 mM Mg-ATP. For the IC50 screen inhibition assay, 10 concentrations of each compound were tested in the presence of ATP in 1 replicate. For the 1 concentration inhibition assay, 1 concentration of each compound was tested in the presence of ATP (active transport) in 2 replicates. The solvent control (DMSO) was tested in the presence of 4 mM Mg-ATP (active transport) and in the presence of 4 mM AMP (background) in 8 replicates.
The BSEP membrane vesicle suspension was mixed with the ice-cold transport buffer, then the taurocholate probe substrate solution was added (Reaction mixture, 50 μL per well). The compounds were added to the reaction mixture at 1.5-times the final assay concentration. […].
Reaction mixtures and the start reagent (Mg-ATP or AMP in transport buffer) were pre-warmed separately for 15 minutes to reach the incubation temperature of 37° C. […]
The reaction was initiated by the addition of the start reagent (25 μL) to the reaction mixture (diluting the reaction mixture to the final concentration). […] After the 5-minute incubation at 37° C., the reaction was stopped by the addition of 250 μL ice-cold washing mix to each well. […]
The samples were then be transferred to a filter plate and washed with 200 μL cold washing mix5-times to remove any free compounds or taurocholate probe substrate. The amount of taurocholate probe substrate inside the filtered vesicles were determined by liquid scintillation counting. […]

A further test relates to A375-NRAS^Q61K cells. Briefly: CTGlo Cell Viability Assay, A375-NRAS^Q61K (A375.11) cells, 96 hours. The test is classed as cell-based, human. As to conditions: A375.11 (A375-NRAS^Q61K) cells. Put shortly: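 A375 cells carrying BRAF V600E and NRAS Q61K were seeded at 250 cells/well with a 10-point half-log dose series (max 10 μM final). After 96 h at 37 °C, viability was read as ATP luminescence (CellTiter-Glo), background-subtracted and normalized to DMSO (100%). GI50 from 4-parameter fit; Emax is the lowest % viability.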

Setting [2] is: Homo sapiens, 96 h, lowest % viability achieved.

Broadly, the GI50 is the concentration that inhibits growth by half. A low value points to greater sensitivity of the cells.

T1 sequence (O95342 whole entry): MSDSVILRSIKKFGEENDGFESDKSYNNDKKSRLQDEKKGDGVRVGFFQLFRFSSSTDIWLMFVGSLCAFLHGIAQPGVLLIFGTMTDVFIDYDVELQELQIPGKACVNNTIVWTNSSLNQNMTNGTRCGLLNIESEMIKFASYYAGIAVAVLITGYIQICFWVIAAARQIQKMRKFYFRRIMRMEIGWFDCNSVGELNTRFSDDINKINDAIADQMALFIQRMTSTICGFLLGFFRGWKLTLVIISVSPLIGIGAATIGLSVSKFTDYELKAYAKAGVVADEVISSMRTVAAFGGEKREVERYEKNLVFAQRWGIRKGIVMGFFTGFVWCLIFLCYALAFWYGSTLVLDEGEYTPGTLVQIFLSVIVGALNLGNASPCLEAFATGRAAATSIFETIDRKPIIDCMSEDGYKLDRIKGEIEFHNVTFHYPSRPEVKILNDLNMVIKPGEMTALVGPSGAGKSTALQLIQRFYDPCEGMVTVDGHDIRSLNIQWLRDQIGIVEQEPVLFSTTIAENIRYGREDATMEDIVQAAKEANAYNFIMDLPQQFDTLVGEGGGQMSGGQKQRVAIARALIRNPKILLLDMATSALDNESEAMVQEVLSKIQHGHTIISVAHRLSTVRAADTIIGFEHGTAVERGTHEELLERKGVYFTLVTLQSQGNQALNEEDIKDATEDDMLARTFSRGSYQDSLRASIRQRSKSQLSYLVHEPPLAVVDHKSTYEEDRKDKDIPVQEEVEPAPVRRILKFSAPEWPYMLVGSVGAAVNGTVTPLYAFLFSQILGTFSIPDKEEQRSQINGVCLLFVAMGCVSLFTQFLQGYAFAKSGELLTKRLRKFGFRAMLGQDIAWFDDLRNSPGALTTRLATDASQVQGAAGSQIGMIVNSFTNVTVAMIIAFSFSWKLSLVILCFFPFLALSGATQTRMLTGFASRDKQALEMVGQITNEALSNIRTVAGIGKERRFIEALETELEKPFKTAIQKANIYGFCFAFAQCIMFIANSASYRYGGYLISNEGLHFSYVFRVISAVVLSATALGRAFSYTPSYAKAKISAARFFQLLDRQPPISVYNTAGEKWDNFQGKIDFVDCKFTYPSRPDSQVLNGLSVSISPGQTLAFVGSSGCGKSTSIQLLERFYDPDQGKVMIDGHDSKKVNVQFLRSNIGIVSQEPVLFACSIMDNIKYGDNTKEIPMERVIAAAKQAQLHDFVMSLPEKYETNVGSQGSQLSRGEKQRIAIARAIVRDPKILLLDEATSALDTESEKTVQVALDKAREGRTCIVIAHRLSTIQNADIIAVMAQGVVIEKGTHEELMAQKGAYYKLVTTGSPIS

As for `CCN(C)S(=O)(=O)Nc1ccc(F)c(Oc2ccc3ncn([C@H]4COC5(CCN(C6CCC(c7cc8c(cc7F)c(N7CCC(=O)NC7=O)nn8C)CC6F)CC5)C4)c(=O)c3c2)c1C#N` (single isomer, unassigned) [Compound 28], the BSEP Inhibition/IC50 in test [1] was 1960 nM. In addition, the GI50 with A375-NRAS^Q61K cells (Homo sapiens, 96 h) was under 1000 nM. In addition, the Emax in the test with A375-NRAS^Q61K cells (setting [2]) is under 50%.

For `CCN(C)S(=O)(=O)Nc1ccc(F)c(Oc2ccc3ncn([C@@H]4CCC5(CCN(C6CCC(c7cc8c(cc7F)c(N7CCC(=O)NC7=O)nn8C)CC6)CC5)C4)c(=O)c3c2)c1C#N` (single isomer, unassigned) [Compound 31], the BSEP Inhibition/IC50 in test [1] came to 4230 nM. For the same compound, in the test on A375-NRAS^Q61K cells (Homo sapiens, 96 h), the GI50 was in the range of 1000 to 10000 nM. This compound had an Emax in the test with A375-NRAS^Q61K cells (setting [2]) of under 50%.

On to `CCN(C)S(=O)(=O)Nc1ccc(F)c(Oc2ccc3ncn([C@H]4CCC5(CCN(C6CCC(c7cc8c(cc7F)c(N7CCC(=O)NC7=O)nn8C)CC6)CC5)C4)c(=O)c3c2)c1C#N` (single isomer, unassigned) [Compound 33], for which, in test [1] (in nM), the “BSEP Inhibition/IC50” value turned out to be 10060. In the test with A375-NRAS^Q61K cells (Homo sapiens, 96 h), the GI50 is under 1000 nM. Besides, the Emax in the test with A375-NRAS^Q61K cells (setting [2]) is under 50%.

In the case of `CCN(C)S(=O)(=O)Nc1ccc(F)c(Oc2ccc3ncn([C@H]4COC5(CCC(N6CCC(c7cc8c(cc7F)c(N7CCC(=O)NC7=O)nn8C)C(F)(F)C6)CC5)C4)c(=O)c3c2)c1C#N` (single isomer, unassigned) [Compound 38], the “BSEP Inhibition/IC50” value in test [1] (in nM) worked out at 963.6. In the test on A375-NRAS^Q61K cells (Homo sapiens, 96 h), this compound gave a GI50 of under 1000 nM. The Emax with A375-NRAS^Q61K cells (setting [2]) is under 50%.

As for `CCN(C)S(=O)(=O)Nc1ccc(F)c(Oc2ccc3ncn([C@H]4COC5(CCC(N6CCC(c7cc8c(cc7F)c(N7CCC(=O)NC7=O)nn8C)C(F)(F)C6)CC5)C4)c(=O)c3c2)c1C#N` (single isomer, unassigned) [Compound 39], the BSEP Inhibition/IC50 in test [1] came to 1560 nM. Also, the GI50 in the test with A375-NRAS^Q61K cells is under 1000 nM. Besides, the “CTGlo A375.11 96 hours Emax” value in the test with A375-NRAS^Q61K cells (lowest % viability achieved) is “*** (<=50%)”.

In the case of `CCN(C)S(=O)(=O)Nc1ccc(F)c(Oc2ccc3ncc([C@@H]4COC5(CCN(C6CCC(c7cc8c(cc7F)c(N7CCC(=O)NC7=O)nn8C)CC6)CC5)C4)nc3c2)c1C#N` (single isomer, unassigned) [Compound 54], in test [1] (in nM), the “BSEP Inhibition/IC50” value is recorded as 11010. In the test on A375-NRAS^Q61K cells (Homo sapiens, 96 h), the GI50 was under 1000 nM. Also, in the test with A375-NRAS^Q61K cells (setting [2]), the Emax was under 50%.

Take `CCN(C)S(=O)(=O)Nc1ccc(F)c(Oc2ccc3ncc([C@@H]4COC5(CCN(C6CCC(c7ccc(NC8CCC(=O)NC8=O)cc7F)CC6)CC5)C4)nc3c2)c1C#N` (single isomer, unassigned) [Compound 60]: the BSEP Inhibition/IC50 in test [1] was found to be 7880 nM. The compound also gave a GI50 in the test with A375-NRAS^Q61K cells of under 1000 nM. This compound also gave an Emax in the test with A375-NRAS^Q61K cells (setting [2]) of under 50%.

As for `CCN(C)S(=O)(=O)Nc1ccc(F)c(Oc2ccc3ncn([C@H]4COC5(CCN(C6CC(c7cc8c(cc7F)c(N7CCC(=O)NC7=O)nn8C)C6)CC5)C4)c(=O)c3c2)c1C#N` (single isomer, unassigned) [Compound 70], the BSEP Inhibition/IC50 in test [1] was found to be 2080 nM. Further, the GI50 in the test with A375-NRAS^Q61K cells (Homo sapiens, 96 h) is under 1000 nM. Besides, the Emax with A375-NRAS^Q61K cells (setting [2]) is under 50%.

In turn, `CCN(C)S(=O)(=O)Nc1ccc(F)c(C(=O)c2ccc3ncn(C4CC5(CCN(C6CCC(c7cc8c(cc7F)c(N7CCC(=O)NC7=O)nn8C)CC6)CC5)C4)c(=O)c3c2)c1F` (single isomer, unassigned) [Compound 182, 3-[7-[4-[3-(2,4-dioxohexahydropyrimidin-1-yl)-5-fluoro-1-methyl-indazol-6-yl]cyclohexyl]-7-azaspiro[3.5]nonan-2-yl]-6-[3-[[ethyl(methyl)sulfamoyl]amino]-2,6-difluoro-benzoyl]-4-oxo-quinazoline] displayed a concentration for 50% growth inhibition (GI50) in the test with A375-NRAS^Q61K cells (Homo sapiens, 96 h) of 1000 to 10000 nM. This compound also had an Emax with A375-NRAS^Q61K cells (setting [2]) of 50 to 90%.

Consider `CCN(C)S(=O)(=O)Nc1ccc(F)c(Oc2ccc3ncn(C4CC5(CCN(C6CCC(c7cc8c(cc7F)c(N7CCC(=O)NC7=O)nn8C)CC6F)CC5)C4)c(=O)c3c2)c1F` (single isomer, unassigned) [Compound 184], for which, in the test on A375-NRAS^Q61K cells, the GI50 was in the range of 1000 to 10000 nM. In the test with A375-NRAS^Q61K cells (setting [2]), the Emax lay in the range of 50 to 90%.

With `CCN(C)S(=O)(=O)Nc1ccc(F)c(Oc2ccc3ncn([C@H]4COC5(CCC(N6CC7(CN(c8cc9c(cc8F)c(N8CCC(=O)NC8=O)nn9C)C7)C6)CC5)C4)c(=O)c3c2)c1C#N` (stereo partly drawn) [Compound 27, 6-[2-cyano-3-[[ethyl(methyl)sulfamoyl]amino]-6-fluoro-phenoxy]-3-[(3R)-8-[6-[3-(2,4-dioxohexahydropyrimidin-1-yl)-5-fluoro-1-methyl-indazol-6-yl]-2,6-diazaspiro[3.3]heptan-2-yl]-1-oxaspiro[4.5]decan-3-yl]-4-oxo-quinazoline], in the test with A375-NRAS^Q61K cells (Homo sapiens, 96 h), the GI50 is under 1000 nM. In the test on A375-NRAS^Q61K cells (setting [2]), this compound registered an Emax of under 50%.

Take `CCN(C)S(=O)(=O)Nc1ccc(F)c(Oc2ccc3ncn([C@H]4COC5(CCN(C6CC7(C6)CN(c6ccc(NC8CCC(=O)NC8=O)cc6F)C7)CC5)C4)c(=O)c3c2)c1C#N` (stereo partly drawn) [Compound 35, (3R)-3-[6-[2-cyano-3-[[ethyl(methyl)sulfamoyl]amino]-6-fluoro-phenoxy]-4-oxo-quinazolin-3-yl]-8-[2-[4-[(2,6-dioxo-3-piperidyl)amino]-2-fluoro-phenyl]-2-azaspiro[3.3]heptan-6-yl]-1-oxa-8-azaspiro[4.5]decane]: in the test with A375-NRAS^Q61K cells (Homo sapiens, 96 h), the GI50 lay within 1000 to 10000 nM. Also, the Emax with A375-NRAS^Q61K cells (setting [2]) was in the range of 50 to 90%.

In the test with A375-NRAS^Q61K cells (Homo sapiens, 96 h), `CCN(C)S(=O)(=O)Nc1ccc(F)c(Oc2ccc3ncn([C@H]4COC5(CCC(N6CCN(c7ccc(NC8CCC(=O)NC8=O)cc7F)CC6)CC5)C4)c(=O)c3c2)c1C#N` (stereo partly drawn) [Compound 40, 6-[2-cyano-3-[[ethyl(methyl)sulfamoyl]amino]-6-fluoro-phenoxy]-3-[(3R)-8-[4-[4-[(2,6-dioxo-3-piperidyl)amino]-2-fluoro-phenyl]piperazin-1-yl]-1-oxaspiro[4.5]decan-3-yl]-4-oxo-quinazoline] had a GI50 of 1000 to 10000 nM. The same compound displayed an Emax with A375-NRAS^Q61K cells (setting [2]) of 50 to 90%.

`CC(C)S(=O)(=O)Nc1ccc(F)c(Oc2ccc3ncn([C@H]4COC5(CCN(C6CC7(C6)CN(c6cc8c(cc6F)c(N6CCC(=O)NC6=O)nn8C)C7)CC5)C4)c(=O)c3c2)c1C#N` [Compound 134, N-[2-cyano-3-[3-[(3R)-8-[2-[3-(2,4-dioxohexahydropyrimidin-1-yl)-5-fluoro-1-methyl-indazol-6-yl]-2-azaspiro[3.3]heptan-6-yl]-1-oxa-8-azaspiro[4.5]decan-3-yl]-4-oxo-quinazolin-6-yl]oxy-4-fluoro-phenyl]propane-2-sulfonamide]: in the test with A375-NRAS^Q61K cells (Homo sapiens, 96 h), the GI50 is under 1000 nM. The compound further came in with an Emax with A375-NRAS^Q61K cells (setting [2]) of 50 to 90%.

Regarding `CN(CCO)S(=O)(=O)Nc1ccc(F)c(Oc2ccc3ncn(C4CC5(CCN(C6CC7(C6)CN(c6cc8c(cc6F)c(N6CCC(=O)NC6=O)nn8C)C7)CC5)C4)c(=O)c3c2)c1C#N` (centres unmarked) [Compound 151, 6-[2-cyano-6-fluoro-3-[[2-hydroxyethyl(methyl)sulfamoyl]amino]phenoxy]-3-[7-[2-[3-(2,4-dioxohexahydropyrimidin-1-yl)-5-fluoro-1-methyl-indazol-6-yl]-2-azaspiro[3.3]heptan-6-yl]-7-azaspiro[3.5]nonan-2-yl]-4-oxo-quinazoline], the GI50 with A375-NRAS^Q61K cells (Homo sapiens, 96 h) lay within 1000 to 10000 nM. The compound further yielded an Emax in the test on A375-NRAS^Q61K cells (setting [2]) of over 90%.
